According to patent US9156811B2 (priority 2008, dated 2015):

System: Trypanosome (T. brucei brucei)
Experiment: In-vitro antitrypanosomal efficacy assay (cell growth, resazurin)
Assay type: cell-based
Settings: T. brucei brucei, blood stream form, variant 221
Procedure: To column 12, 200 μl media was added to provide a no cells control. Plates were then incubated at 37° C. in an atmosphere of 5% CO2 for 69 hours, before the addition of 20 μl of 500 μM rezasurin solution, and a further incubation period of 4 hours. […] Concentration effect curves were fitted using non-linear regression using XLFit 4.2 and EC50 values determined.

Compound | ED50 (μM) T. brucei [µM]
Cc1nn(C)c(C)c1N(C(F)F)[S+](=O)([O-])c1ccc(-c2ccnc(N3CCNCC3)c2)cc1 [DDD100888] | 0.003
Cc1c(N(C(F)F)[S+](=O)([O-])c2c(Cl)cc(-c3ccnc(N4CCNCC4)c3)cc2Cl)c(CC(C)C)nn1C [DDD100886] | 0.004
Cc1nn(C)c(C)c1N(C(F)F)[S+](=O)([O-])c1c(Cl)cc(CCCOC2CN3CCC2CC3)cc1Cl (stereo not shown) [DDD100872] | 0.002
Cc1nn(C)c(C)c1N(C)[S+](=O)([O-])c1c(Cl)cc(CCCCCn2ccnc2)cc1Cl [DDD99834] | 0.225
Cc1nn(C)c(C)c1N(CC(F)(F)F)[S+](=O)([O-])c1c(Cl)cc(CCCN2CCCN(C)CC2)cc1Cl [DDD100157] | 0.014
Cc1nn(C)c(C)c1N(C(F)F)[S+](=O)([O-])c1c(Cl)cc(CCCCCCn2ccnc2C)cc1Cl [DDD100795] | 0.005
Cc1c(N[S+](=O)([O-])c2ccc(-c3ccc(Cl)c(CN(C)C)c3)cc2)c(CC(C)C)nn1C [DDD100143] | 0.017
Cc1ccc(-c2ccc([S+](=O)([O-])Nc3c(CC(C)C)nn(C)c3C)cc2)cc1CN(C)C [DDD99824] | 0.014
CCc1nn(C)c(CC)c1N(C)[S+](=O)([O-])c1c(Cl)cc(CCCN2CCN(C)CC2)cc1Cl [DDD99836] | 0.013
CCc1nccn1CCCCCCc1cc(Cl)c([S+](=O)([O-])N(c2c(C)nn(C)c2C)C(F)F)c(Cl)c1 [DDD100794] | 0.160
Cc1nn(C)c(C)c1N(CC(F)(F)F)[S+](=O)([O-])c1c(Cl)cc(CCCCC2CCNCC2)cc1Cl [DDD100167] | 0.014
Cc1nn(C)c(C)c1N(C(F)F)[S+](=O)([O-])c1c(Cl)cc(CCCN2CCCNCC2)cc1Cl [DDD100166] | 0.002
Cc1nn(C)c(C)c1N(C(F)F)[S+](=O)([O-])c1c(Cl)cc(CCCN2CCN(C)CC2)cc1Cl [DDD100086] | 0.012

Same assay, conditions: T. brucei cell growth

Compound | ED50 (μM) T. brucei [µM]
Cc1c(N[S+](=O)([O-])c2ccc(-c3ccnc(N4CCNCC4)c3)cc2)cnn1C [DDD87995, N-(1,5-Dimethyl-1H-pyrazol-4-yl)-4-(2-piperazin-1-yl-pyridin-4-yl)-benzenesulfonamide] | 0.02
Cc1nn(C)c(C)c1N(C)[S+](=O)([O-])c1ccc(-c2cccc(CN3CCN(C)CC3)c2)cc1 [DDD88196, 3′-(4-Methyl-piperazin-1-ylmethyl)-biphenyl-4-sulfonic acid methyl-(1,3,5-trimethyl-1H-pyrazol-4-yl)-amide] | 0.05
C=CCN(c1c(C)nn(C)c1C)[S+](=O)([O-])c1c(Cl)cc(Br)cc1Cl [DDD85638] | >1
Cc1nn(C)c(C)c1N[S+](=O)([O-])c1ccc(N2CCC(N3CCCCC3)C2)nc1 (stereo not shown) [DDD86477] | >1
Cc1nn(C)c(C)c1N[S+](=O)([O-])c1ccc(-c2cccc(CN3CCCC3)c2)cc1 [DDD86318, 3′-Pyrrolidin-1-ylmethyl-biphenyl-4-sulfonic acid (1,3,5-trimethyl-1H-pyrazol-4-yl)-amide] | 0.21
Cc1nn(C)c(C)c1N[S+](=O)([O-])c1cc(C(F)(F)F)cc(C(F)(F)F)c1 [DDD61393] | >1
Cc1nn(C)c(C)c1N(C)[S+](=O)([O-])c1c(Cl)cc(CCCC2CCN(C)CC2)cc1Cl [DDD90146] | 0.002
Cc1nn(C)c(C)c1N[S+](=O)([O-])c1ccc(-c2ccnc(N3CCNC(C)C3)c2)cc1 (stereo not shown) [DDD87748] | 0.001
Cc1nn(C)c(C)c1N[S+](=O)([O-])c1c(Cl)cc(C#CCN2CCN(C)CC2)cc1Cl [DDD86469, 2,6-Dichloro-4-[3-(4-methyl-piperazin-1-yl)-prop-1-ynyl]-N-(1,3,5-trimethyl-1H-pyrazol-4-yl)-benzenesulfonamide] | 0.55
Cc1nn(C)c(C)c1N[S+](=O)([O-])c1ccc(Br)cc1Cl [DDD86208, 4-Bromo-2-chloro-N-(1,3,5-trimethyl-1H-pyrazol-4-yl)-benzenesulfonamide] | >1
Cc1nn(C)c(C)c1N[S+](=O)([O-])c1ccc(Cl)nc1 [DDD73235, 6-Chloro-pyridine-3-sulfonic acid (1,3,5-trimethyl-1H-pyrazol-4-yl)-amide] | >1
Cc1nn(C)c(C)c1N(C)[S+](=O)([O-])c1c(Cl)cc(CCCN2CCCNCC2)cc1Cl [DDD99755] | 0.002
Cc1nn(C)c(C)c1N[S+](=O)([O-])c1c(Cl)cc(-c2ccc(N3CCNCC3)nc2)cc1Cl [DDD85645] | 0.23
Cc1nn(C)cc1N[S+](=O)([O-])c1c(Cl)cc(-c2ccnc(N3CCNCC3)c2)cc1Cl [DDD86475, 2,6-Dichloro-N-(1,3-dimethyl-1H-pyrazol-4-yl)-4-(2-piperazin-1-yl-pyridin-4-yl)-benzenesulfonamide] | 0.003
Cc1nn(C)c(C)c1N(CC1OCCO1)[S+](=O)([O-])c1c(Cl)cc(Br)cc1Cl [DDD85641] | 16.3
Cc1nn(C)c(C)c1N[S+](=O)([O-])c1c(Cl)cc(-c2ccc(OC(F)(F)F)cc2)cc1Cl [DDD73323] | >1
Cc1cc([S+](=O)([O-])Nc2c(C)nn(C)c2C)c(Cl)cc1Cl [DDD60006] | >1
Cc1c(N[S+](=O)([O-])c2ccc(CCCC3CCNCC3)cc2)c(CC(C)C)nn1C [DDD90144] | 0.034
Cc1nn(C)c(C)c1N[S+](=O)([O-])c1ccc(-c2ccnc(N3CCNCC3)c2)cc1 [DDD86213, 4-(2-piperazin-1-yl-pyridin-4-yl)-N-(1,3,6-trimethyl-1H-pyrazol-4-yl)-benzenesulfonamide] | 0.003
Cc1nn(C)c(C)c1N[S+](=O)([O-])c1c(F)cc(Br)cc1F [DDD88317] | >10
Cc1nn(C)c(C)c1N[S+](=O)([O-])c1c(Cl)cc(-c2ccccc2OCC(C)C)cc1Cl [DDD73273] | >1

Compound | ED50 (μM) T. brucei [µM]
Cc1nn(C)c(C)c1N[S+](=O)([O-])c1ccc(CCCOC2CCN(C)CC2)cc1 [DDD99820] | 0.020
Cc1noc(C)c1N[S+](=O)([O-])c1ccc(-c2cccc(C3CCNCC3)c2)cc1 [DDD88189, 3′-Piperidin-4-yl-biphenyl-4-sulfonic acid (3,5-dimethyl-isoxazol-4-yl)-amide] | >1
Cc1nn(C)c(C)c1N[S+](=O)([O-])c1ccc(N(C)CCO)nc1 [DDD86307] | >1
Cc1nn(C)c(C)c1N(C)[S+](=O)([O-])c1ccc(-c2cccc(CC3CCNCC3)c2)cc1 [DDD90098] | 0.060
Cc1nn(C)c(C)c1N[S+](=O)([O-])c1ccc(-c2cccc(CN3CCN(C(=O)OC(C)(C)C)CC3)c2)cc1 [DDD86315, 4-[4′-(1,3,5-Trimethyl-1H-pyrazol-4-ylsulfamoyl)-biphenyl-3-ylmethyl]-piperazine-1-carboxylic acid tert-butyl ester] | >1
Cc1nn(C)c(CC(C)C)c1N[S+](=O)([O-])c1c(Cl)cc(Br)cc1Cl [DDD88197, 4-Bromo-2,6-dichloro-N-(5-isobutyl-1,3-dimethyl-1H-pyrazol-4-yl)-benzenesulfonamide] | 45.9
Cc1nn(C)c(C)c1N[S+](=O)([O-])c1c(Cl)cc(-c2ccc(CN(C)Cc3ccccc3)cc2)cc1Cl [DDD85632] | >1
Cc1nn(C)c(C)c1N(C)[S+](=O)([O-])c1ccc(-c2cccc(CC3CCN(C)CC3)c2)cc1 [DDD90091] | 0.063
Cc1nn(C)c(C)c1N[S+](=O)([O-])c1ccc(-c2cccc(CN3CCNC(c4ccccc4)C3)c2)cc1 (stereo not shown) [DDD87754, 3′-(3-Phenyl-piperazin-1-ylmethyl)-biphenyl-4-sulfonic acid (1,3,5-trimethyl-1H-pyrazol-4-yl)-amide] | 1.6
Cn1cc(N[S+](=O)([O-])c2c(Cl)cc(-c3ccnc(N4CCNCC4)c3)cc2Cl)cn1 [DDD86478, 2,6-Dichloro-N-(1-methyl-1H-pyrazol-4-yl)-4-(2-piperazin-1-yl-pyridin-4-yl)-benzenesulfonamide] | 0.24
Cc1nn(C)c(C)c1N[S+](=O)([O-])c1ccc(N2CCC(NC3CCN(Cc4ccccc4)C3)CC2)nc1 (stereo not shown) [DDD86473] | >1
Cc1c(N(C)[S+](=O)([O-])c2ccc(CCCC3CCN(C)CC3)cc2)c(CC(C)C)nn1C [DDD90142] | 0.168
Cc1nn(C)c(C)c1N[S+](=O)([O-])c1c(Cl)cc(CCCC2CCN(C)CC2)cc1Cl [DDD88557] | 0.002
Cc1nn(C)c(C)c1N[S+](=O)([O-])c1ccc(NCCC2CCN(C)CC2)nc1 [DDD88000, 6-[2-(1-Methyl-piperidin-4-yl)-ethylamino]-pyridine-3-sulfonic acid (1,3,5-trimethyl-1H-pyrazol-4-yl)-amide] | 0.77
C#CCN(c1c(C)nn(C)c1C)[S+](=O)([O-])c1c(Cl)cc(Br)cc1Cl [DDD85630] | >1
Cc1nn(C)c(C)c1N[S+](=O)([O-])c1ccc(N2CCC(N(C)C)C2)nc1 (stereo not shown) [DDD86306] | >1
CCCOc1cc(CN2CCN(C)CC2)cc(-c2ccc([S+](=O)([O-])Nc3c(C)nn(C)c3C)cc2)c1 [DDD88187, 5′-(4-Methyl-piperazin-1-ylmethyl)-3′-propoxy-biphenyl-4-sulfonic acid (1,3,5-trimethyl-1H-pyrazol-4-yl)-amide] | 2.15
CC#CCN(c1c(C)nn(C)c1C)[S+](=O)([O-])c1c(Cl)cc(Br)cc1Cl [DDD85631] | >1
Cc1nn(C)c(C)c1N[S+](=O)([O-])c1ccc(-c2cc(CN3CCN(C)CC3)cc(OC(C)C)c2)cc1 [DDD88194, 3′-Isopropoxy-5′-(4-methyl-piperazin-1-ylmethyl)-biphenyl-4-sulfonic acid (1,3,5-trimethyl-1H-pyrazol-4-yl)-amide] | 2.0
Cc1nn(C)c(C)c1N[S+](=O)([O-])c1ccc(-c2ccnc(N3CCNC(C(C)C)C3)c2)cc1 (stereo not shown) [DDD88549] | 0.11
Cc1nn(C)c(C)c1N(CC(F)(F)F)[S+](=O)([O-])c1ccc(-c2cccc(CN3CCN(C)CC3)c2)cc1 [DDD90057] | 0.73
